Measured values from ChEMBL document CHEMBL1153495, “A highly sensitive probe detecting low pH area of HeLa cells based on rhodamine B modified beta-cyclodextrins” (Bioorg Med Chem, 2009).
The source made the active and inactive calls. No cut-off for these calls is given here.

Experiments:
HeLa [1] = experiment: Cytotoxicity against human HeLa cells up to 1000 uM after 48 hrs by MTT assay; assay type: functional, cell-based
HeLa [2] = experiment: Drug uptake in human HeLa cells assessed as staining capability after 5 hrs by fluorescence microscopy; assay type: ADME, cell-based
Jurkat = experiment: Cytotoxicity against human Jurkat cells at 1000 uM after 48 hrs by MTT assay; assay type: functional, cell-based

Structure (SMILES)	Activity (HeLa [1])	further results
NCCNC[C@H]1O[C@@H]2O[C@H]3[C@H](O)[C@@H](O)[C@@H](O[C@@H]4[C@@H](O)[C@H](O)[C@H](O[C@@H]5[C@@H](O)[C@H](O)[C@H](O[C@@H]6[C@@H](O)[C@H](O)[C@H](O[C@@H]7[C@@H](O)[C@H](O)[C@H](O[C@H]8[C@H](O)[C@@H](O)[C@@H](O[C@H]1[C@H](O)[C@H]2O)O[C@@H]8CO)O[C@H]7CO)O[C@H]6CO)O[C@H]5CO)O[C@H]4CO)O[C@@H]3CO	inactive	–
OC[C@H]1O[C@@H]2O[C@H]3[C@H](O)[C@@H](O)[C@@H](O[C@H]4[C@H](O)[C@@H](O)[C@@H](O[C@H]5[C@H](O)[C@@H](O)[C@@H](O[C@H]6[C@H](O)[C@@H](O)[C@@H](O[C@H]7[C@H](O)[C@@H](O)[C@@H](O[C@H]8[C@H](O)[C@@H](O)[C@@H](O[C@H]1[C@H](O)[C@H]2O)O[C@@H]8CO)O[C@@H]7CO)O[C@@H]6CO)O[C@@H]5CO)O[C@@H]4CO)O[C@@H]3CO	inactive	–
CCN(CC)c1ccc2c(-c3ccccc3C(=O)NCCNCCNCCNCCNC[C@H]3O[C@@H]4O[C@H]5[C@H](O)[C@@H](O)[C@@H](O[C@@H]6[C@@H](O)[C@H](O)[C@H](O[C@@H]7[C@@H](O)[C@H](O)[C@H](O[C@@H]8[C@@H](O)[C@H](O)[C@H](O[C@@H]9[C@@H](O)[C@H](O)[C@H](O[C@H]%10[C@H](O)[C@@H](O)[C@@H](O[C@H]3[C@H](O)[C@H]4O)O[C@@H]%10CO)O[C@H]9CO)O[C@H]8CO)O[C@H]7CO)O[C@H]6CO)O[C@@H]5CO)c3ccc(=[N+](CC)CC)cc-3oc2c1.[Cl-]	–	Drug uptake (HeLa [2]): 66.6 µM
CCN(CC)c1ccc2c(-c3ccccc3C(=O)O)c3ccc(=[N+](CC)CC)cc-3oc2c1 [RHODAMINE B]	–	Activity (HeLa [2]): Not Active
NCCNCCNCCNCCNC[C@H]1O[C@@H]2O[C@H]3[C@H](O)[C@@H](O)[C@@H](O[C@@H]4[C@@H](O)[C@H](O)[C@H](O[C@@H]5[C@@H](O)[C@H](O)[C@H](O[C@@H]6[C@@H](O)[C@H](O)[C@H](O[C@@H]7[C@@H](O)[C@H](O)[C@H](O[C@H]8[C@H](O)[C@@H](O)[C@@H](O[C@H]1[C@H](O)[C@H]2O)O[C@@H]8CO)O[C@H]7CO)O[C@H]6CO)O[C@H]5CO)O[C@H]4CO)O[C@@H]3CO	inactive	Activity (Jurkat): Active
